Laboratory results published in ChEMBL document CHEMBL1201862, “PubChem BioAssay data set” (2004).
Calls of active or inactive are those of the source.

Key:
[1] = inhibitors of SFLLRN-triggered platelet P-selectin exposure, dose response, cell-based, fluorescence, flow cytometry, human platelets (AID 2511); type: functional
[2] = blockers of SFLLRN-triggered platelet ATP secretion – cell-based, human platelets, luminescence, dry powder, dose response (AID 493100); type: functional
[3] = Luminescence Cell-Based Dose Response Follow up to Identify Inhibitors of Platelet Dense Granule Release. [Related pubchem assays (depositor defined):AID1663, AID1678, AID2398]; type: functional
[4] = molecular target: Eukaryotic translation initiation factor 4E (Mus musculus, UniProt P63073); test: eIF4E–eIF4G protein interaction inhibitors, dose response, biochemical, TR-FRET (AID 855); type: functional;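 also: potency for disrupting eIF4E binding to eIF4GI seen as loss of FRET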
[5] = molecular target: T1, Dual specificity protein phosphatase 6 (Rattus norvegicus, UniProt Q64346); test: MKP-3 phosphatase inhibitors, primary screen, biochemical, rat enzyme, in vitro (AID 425)
T1 sequence (Q64346 whole entry): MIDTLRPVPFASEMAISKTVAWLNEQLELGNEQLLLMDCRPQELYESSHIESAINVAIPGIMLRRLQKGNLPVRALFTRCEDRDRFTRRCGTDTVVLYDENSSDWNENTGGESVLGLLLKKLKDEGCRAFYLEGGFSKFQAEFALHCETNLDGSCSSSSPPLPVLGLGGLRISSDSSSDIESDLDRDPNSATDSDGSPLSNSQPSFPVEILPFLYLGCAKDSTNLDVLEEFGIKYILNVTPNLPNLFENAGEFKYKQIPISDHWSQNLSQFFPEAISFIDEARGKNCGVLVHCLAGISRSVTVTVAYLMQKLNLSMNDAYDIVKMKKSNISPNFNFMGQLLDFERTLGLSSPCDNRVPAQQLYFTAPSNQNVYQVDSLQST

[6] = molecular target: T2, Dual specificity protein phosphatase 3 (Homo sapiens, UniProt P51452); test: VHR1 phosphatase inhibitors, primary screen, biochemical, absorbance, uHTS (AID 1654)
T2 sequence (P51452 whole entry): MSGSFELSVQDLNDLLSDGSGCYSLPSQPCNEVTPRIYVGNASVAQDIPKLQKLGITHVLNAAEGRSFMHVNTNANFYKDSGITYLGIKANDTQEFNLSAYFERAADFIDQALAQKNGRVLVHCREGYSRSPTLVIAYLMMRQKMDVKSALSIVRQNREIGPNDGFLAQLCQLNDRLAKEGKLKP

[7] = molecular target: T2, Dual specificity protein phosphatase 3; test: VHR1 phosphatase inhibitors, biochemical (AID 1878)
[8] = tested on: Vero; test: Vero cell cytotoxicity, cytotoxicity control for flavivirus capping enzyme inhibitors (AID 588742); type: functional; settings: Chlorocebus sabaeus
[9] = molecular target: Genome polyprotein (dengue virus type 2, UniProt P29990); test: Dengue-2 NS5 methyltransferase inhibitors, primary screen, biochemical, confirmation dose response (AID 588689); type: functional
Genome polyprotein, sequence (P29990 2492-3391 limits assumed): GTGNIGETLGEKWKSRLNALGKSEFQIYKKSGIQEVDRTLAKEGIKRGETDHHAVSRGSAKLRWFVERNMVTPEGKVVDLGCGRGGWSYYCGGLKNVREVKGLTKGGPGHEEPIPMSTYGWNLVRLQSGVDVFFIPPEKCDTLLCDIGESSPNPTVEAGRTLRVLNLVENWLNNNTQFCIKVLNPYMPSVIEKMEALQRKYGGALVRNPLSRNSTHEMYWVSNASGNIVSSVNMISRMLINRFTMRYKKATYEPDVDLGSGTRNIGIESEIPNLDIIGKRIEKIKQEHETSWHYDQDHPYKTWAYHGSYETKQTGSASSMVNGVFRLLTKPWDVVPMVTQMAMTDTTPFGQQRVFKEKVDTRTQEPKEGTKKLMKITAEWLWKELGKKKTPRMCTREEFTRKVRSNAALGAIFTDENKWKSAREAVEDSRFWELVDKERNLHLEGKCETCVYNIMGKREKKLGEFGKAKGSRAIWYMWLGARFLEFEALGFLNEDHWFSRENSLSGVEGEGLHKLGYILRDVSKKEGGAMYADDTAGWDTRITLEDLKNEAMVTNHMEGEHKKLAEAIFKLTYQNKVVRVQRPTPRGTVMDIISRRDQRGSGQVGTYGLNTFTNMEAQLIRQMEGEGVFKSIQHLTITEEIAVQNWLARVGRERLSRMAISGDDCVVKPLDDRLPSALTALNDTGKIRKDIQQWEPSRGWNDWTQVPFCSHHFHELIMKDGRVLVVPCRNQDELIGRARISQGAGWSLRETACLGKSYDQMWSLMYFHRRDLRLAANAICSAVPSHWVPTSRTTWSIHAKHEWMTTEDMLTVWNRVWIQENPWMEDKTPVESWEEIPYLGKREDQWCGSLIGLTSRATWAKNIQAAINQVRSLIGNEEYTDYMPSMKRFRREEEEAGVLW

[10] = molecular target: T3, Small ubiquitin-related modifier 1 (Homo sapiens, UniProt P63165); test: inhibitors of SUMO1 partner interactions, dose response, biochemical, FRET (AID 624383); type: functional; settings: read-out: IC50_Mean
T3 sequence (P63165 whole entry): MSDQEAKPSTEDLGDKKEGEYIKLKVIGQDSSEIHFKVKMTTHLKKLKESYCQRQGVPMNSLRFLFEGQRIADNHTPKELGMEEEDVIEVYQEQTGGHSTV

[11] = molecular target: DNA (cytosine-5)-methyltransferase 1 (Homo sapiens, UniProt P26358); test: DNMT1 methyltransferase inhibitors, confirmation, biochemical, fluorescent molecular beacon (AID 602386); type: functional
[12] = molecular target: Envelope glycoprotein gp160 (Human immunodeficiency virus 1, UniProt Q6QLK5); test: inhibitors of HIV fusion peptide binding, primary screen, biochemical, uHTS, fluorescence dequenching (AID 1986)
Envelope glycoprotein gp160, sequence (Q6QLK5 whole entry, the tested form may be a part): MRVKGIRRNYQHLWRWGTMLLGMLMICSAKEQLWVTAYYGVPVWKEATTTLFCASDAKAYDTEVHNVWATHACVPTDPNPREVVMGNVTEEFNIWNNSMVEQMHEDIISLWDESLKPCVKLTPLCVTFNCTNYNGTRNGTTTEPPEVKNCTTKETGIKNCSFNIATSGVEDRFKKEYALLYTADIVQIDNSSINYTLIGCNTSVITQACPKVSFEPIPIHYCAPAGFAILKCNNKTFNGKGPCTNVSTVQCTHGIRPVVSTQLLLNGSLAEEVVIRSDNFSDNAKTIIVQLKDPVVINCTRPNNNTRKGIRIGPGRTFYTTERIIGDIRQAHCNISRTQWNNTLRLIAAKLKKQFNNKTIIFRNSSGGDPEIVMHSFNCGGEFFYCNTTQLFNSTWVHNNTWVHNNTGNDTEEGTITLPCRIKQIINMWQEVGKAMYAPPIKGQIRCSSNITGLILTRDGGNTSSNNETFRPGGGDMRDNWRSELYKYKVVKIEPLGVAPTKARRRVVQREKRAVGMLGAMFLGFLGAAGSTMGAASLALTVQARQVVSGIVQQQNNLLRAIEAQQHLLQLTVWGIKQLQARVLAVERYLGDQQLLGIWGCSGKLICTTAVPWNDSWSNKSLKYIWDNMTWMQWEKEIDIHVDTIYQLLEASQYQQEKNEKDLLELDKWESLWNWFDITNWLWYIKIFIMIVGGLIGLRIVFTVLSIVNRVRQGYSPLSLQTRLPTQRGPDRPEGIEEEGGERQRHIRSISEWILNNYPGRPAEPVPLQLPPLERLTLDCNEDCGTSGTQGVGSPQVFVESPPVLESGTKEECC

[13] = molecular target: Nonstructural protein 1 (Influenza A virus, UniProt Q194T2); type: functional, Influenza A virus (A/California/07/2009(H1N1))
Nonstructural protein 1, sequence (Q194T2 whole entry, the tested form may be a part): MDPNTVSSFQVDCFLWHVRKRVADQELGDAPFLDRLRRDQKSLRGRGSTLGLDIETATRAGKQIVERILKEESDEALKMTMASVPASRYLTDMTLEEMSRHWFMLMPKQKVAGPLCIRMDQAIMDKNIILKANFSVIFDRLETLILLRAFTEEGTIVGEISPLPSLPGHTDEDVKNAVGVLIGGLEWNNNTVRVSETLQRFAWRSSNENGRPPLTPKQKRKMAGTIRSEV

[14] = HIV-1 Env-mediated cell fusion inhibitors, dose response, CCR5-tropic Env (AID 2279); type: functional
[15] = molecular target: T3, Small ubiquitin-related modifier 1; test: inhibitors of SUMO1 peptide binding, dose response, biochemical, fluorescence polarization, uHTS hits (AID 624382); type: functional; settings: read-out: IC50_Mean
[16] = molecular target: Dual specificity tyrosine-phosphorylation-regulated kinase 1A (Rattus norvegicus, UniProt Q63470); type: biochemical, Homo sapiens
[17] = molecular target: DNA topoisomerase (Yersinia pestis, UniProt A0A2S9PM60); test: Y. pestis Topo-I inhibitors, cleavage product readout, dose response, biochemical, cherry-pick (AID 588525)
[18] = molecular target: Cystic fibrosis transmembrane conductance regulator/Golgi-associated PDZ and coiled-coil motif-containing protein (Homo sapiens, UniProt P13569+Q9HD26); test: CAL PDZ peptide-binding inhibitors, dose response, biochemical, fluorescence polarization, Cerulean-tagged CAL PDZ, cherry-picks (AID 504773)
[19] = Counterscreen for AddAB inhibitors: absorbance-based bacterial cell-based high throughput dose response assay for inhibitors of bacterial viability. [Related pubchem assays (depositor defined):AID435030, AID449728, AID449731, AID488942, AID488955, AID488956]; type: functional
[20] = molecular target: G-protein coupled receptor 55 (Homo sapiens, UniProt Q9Y2T6); test: GPR55 agonists via beta-arrestin recruitment, primary screen, imaging, U2OS cells, beta-arrestin-GFP redistribution (AID 1961); type: functional
[21] = molecular target: Exodeoxyribonuclease V (Escherichia coli (strain K12), UniProt P04993+P07648+P08394); test: E. coli RecBCD inhibitors, dose response, counter-screen for AddAB inhibitor project, absorbance, V66 E. coli, mutant T4 phage (AID 492957); type: functional, cell-based, Escherichia coli str. K-12 substr. MG1655
[22] = molecular target: Beta-adrenergic receptor kinase 1 (Homo sapiens, UniProt P25098); test: aptamer displacement from bead-bound GRK2 – biochemical, cherry pick 1, bead flow cytometry, dose response (AID 504500)
Beta-adrenergic receptor kinase 1, sequence (P25098 whole entry): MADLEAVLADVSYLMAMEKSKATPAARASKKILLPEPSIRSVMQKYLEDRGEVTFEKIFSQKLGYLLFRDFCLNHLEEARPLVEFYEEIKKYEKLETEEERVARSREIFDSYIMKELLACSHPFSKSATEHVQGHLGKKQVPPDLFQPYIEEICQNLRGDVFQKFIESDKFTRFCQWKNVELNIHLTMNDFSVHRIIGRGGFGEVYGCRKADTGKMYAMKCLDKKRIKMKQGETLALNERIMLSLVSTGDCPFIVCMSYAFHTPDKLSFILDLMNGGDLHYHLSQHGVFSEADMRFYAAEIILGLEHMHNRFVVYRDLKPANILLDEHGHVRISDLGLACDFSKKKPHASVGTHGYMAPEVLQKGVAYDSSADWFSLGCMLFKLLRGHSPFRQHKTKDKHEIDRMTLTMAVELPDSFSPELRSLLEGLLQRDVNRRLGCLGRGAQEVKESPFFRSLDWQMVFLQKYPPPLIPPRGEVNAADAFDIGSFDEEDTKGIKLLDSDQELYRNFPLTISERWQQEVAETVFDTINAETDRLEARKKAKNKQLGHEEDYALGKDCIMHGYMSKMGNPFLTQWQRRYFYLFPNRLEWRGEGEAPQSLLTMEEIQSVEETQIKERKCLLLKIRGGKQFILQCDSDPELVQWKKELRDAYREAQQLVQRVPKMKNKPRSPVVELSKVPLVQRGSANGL

[23] = tested on: INS1; test: beta cell apoptosis inhibitors, cytokine rescue, dose response, luminescence, retest (AID 449756); type: functional, cell-based; settings: Rattus norvegicus;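 also: cell death triggered by IL-1 beta plus TNF-alpha plus IFN-gamma mixture; protective hits raise ATP signal compared with cytokine alone wells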
[24] = molecular target: Voltage-gated inwardly rectifying potassium channel KCNH2 (Homo sapiens, UniProt Q12809); settings: Potency;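 also: confirmatory quantitative high-throughput screen measuring inhibition of hERG channel activity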
Voltage-gated inwardly rectifying potassium channel KCNH2, sequence (Q12809 whole entry): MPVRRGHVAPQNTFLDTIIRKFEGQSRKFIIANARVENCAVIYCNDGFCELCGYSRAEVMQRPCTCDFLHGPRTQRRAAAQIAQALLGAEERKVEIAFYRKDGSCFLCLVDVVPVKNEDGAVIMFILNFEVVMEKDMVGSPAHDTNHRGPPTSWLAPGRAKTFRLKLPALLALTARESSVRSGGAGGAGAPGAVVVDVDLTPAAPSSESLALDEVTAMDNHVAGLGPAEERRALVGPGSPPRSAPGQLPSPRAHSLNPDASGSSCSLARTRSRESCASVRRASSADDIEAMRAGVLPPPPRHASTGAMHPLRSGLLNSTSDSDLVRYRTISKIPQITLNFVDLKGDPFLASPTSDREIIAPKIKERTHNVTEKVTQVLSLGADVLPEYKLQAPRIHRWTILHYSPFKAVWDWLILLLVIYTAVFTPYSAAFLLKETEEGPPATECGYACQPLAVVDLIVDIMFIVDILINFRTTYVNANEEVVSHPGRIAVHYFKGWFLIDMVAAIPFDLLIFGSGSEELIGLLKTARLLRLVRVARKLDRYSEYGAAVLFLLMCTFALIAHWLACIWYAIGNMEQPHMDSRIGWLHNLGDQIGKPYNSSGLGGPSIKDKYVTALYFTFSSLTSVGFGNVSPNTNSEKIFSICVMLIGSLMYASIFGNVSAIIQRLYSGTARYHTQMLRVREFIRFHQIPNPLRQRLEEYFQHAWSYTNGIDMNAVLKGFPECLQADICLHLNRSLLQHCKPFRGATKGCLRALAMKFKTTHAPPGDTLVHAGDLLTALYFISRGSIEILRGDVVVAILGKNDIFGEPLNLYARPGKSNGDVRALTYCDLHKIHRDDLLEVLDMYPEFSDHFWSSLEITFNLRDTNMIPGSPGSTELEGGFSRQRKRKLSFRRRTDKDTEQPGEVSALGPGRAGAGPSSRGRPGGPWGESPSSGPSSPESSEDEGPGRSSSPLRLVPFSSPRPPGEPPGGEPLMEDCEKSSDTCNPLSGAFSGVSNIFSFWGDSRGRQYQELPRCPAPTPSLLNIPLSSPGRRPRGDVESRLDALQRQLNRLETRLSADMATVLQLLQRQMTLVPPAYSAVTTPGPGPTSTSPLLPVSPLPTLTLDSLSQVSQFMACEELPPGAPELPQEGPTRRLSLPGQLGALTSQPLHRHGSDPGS

[25] = molecular target: Hexokinase-1 (Homo sapiens, UniProt P19367); test: HK1 enzyme inhibition by HKDC1 hits, SAR follow-up, selectivity assay for HKDC1 inhibitor project, biochemical, set 2, resazurin fluorescence coupled readout (AID 588356); type: functional
Hexokinase-1, sequence (P19367 whole entry): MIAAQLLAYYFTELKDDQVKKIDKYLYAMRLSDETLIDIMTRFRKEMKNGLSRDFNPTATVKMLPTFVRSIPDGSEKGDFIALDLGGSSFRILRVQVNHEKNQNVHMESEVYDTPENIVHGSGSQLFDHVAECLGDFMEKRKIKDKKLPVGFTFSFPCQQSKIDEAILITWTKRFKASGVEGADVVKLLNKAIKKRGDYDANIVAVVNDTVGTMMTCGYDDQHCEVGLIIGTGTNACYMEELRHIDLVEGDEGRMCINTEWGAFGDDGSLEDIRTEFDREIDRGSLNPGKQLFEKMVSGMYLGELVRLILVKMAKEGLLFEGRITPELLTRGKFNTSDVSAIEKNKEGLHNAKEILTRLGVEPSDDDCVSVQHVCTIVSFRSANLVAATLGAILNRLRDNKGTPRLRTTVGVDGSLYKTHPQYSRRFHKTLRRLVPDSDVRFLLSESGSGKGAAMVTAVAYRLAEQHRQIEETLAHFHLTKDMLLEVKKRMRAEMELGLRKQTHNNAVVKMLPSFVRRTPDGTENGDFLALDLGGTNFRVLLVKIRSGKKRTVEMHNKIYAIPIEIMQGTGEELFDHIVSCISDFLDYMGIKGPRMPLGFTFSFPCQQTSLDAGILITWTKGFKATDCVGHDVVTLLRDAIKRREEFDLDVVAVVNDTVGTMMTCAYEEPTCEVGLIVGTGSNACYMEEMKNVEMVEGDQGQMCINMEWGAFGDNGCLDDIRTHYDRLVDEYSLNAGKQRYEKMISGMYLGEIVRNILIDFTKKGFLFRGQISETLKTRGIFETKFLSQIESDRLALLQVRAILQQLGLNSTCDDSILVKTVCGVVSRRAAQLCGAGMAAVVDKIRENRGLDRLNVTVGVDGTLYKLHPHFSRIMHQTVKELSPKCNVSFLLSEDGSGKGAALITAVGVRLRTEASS

[26] = molecular target: T4, Hexokinase HKDC1 (Homo sapiens, UniProt Q2TB90); test: HKDC1 hexokinase inhibitors, SAR follow-up, biochemical, set 2 (AID 588355); type: functional
T4 sequence (Q2TB90 whole entry): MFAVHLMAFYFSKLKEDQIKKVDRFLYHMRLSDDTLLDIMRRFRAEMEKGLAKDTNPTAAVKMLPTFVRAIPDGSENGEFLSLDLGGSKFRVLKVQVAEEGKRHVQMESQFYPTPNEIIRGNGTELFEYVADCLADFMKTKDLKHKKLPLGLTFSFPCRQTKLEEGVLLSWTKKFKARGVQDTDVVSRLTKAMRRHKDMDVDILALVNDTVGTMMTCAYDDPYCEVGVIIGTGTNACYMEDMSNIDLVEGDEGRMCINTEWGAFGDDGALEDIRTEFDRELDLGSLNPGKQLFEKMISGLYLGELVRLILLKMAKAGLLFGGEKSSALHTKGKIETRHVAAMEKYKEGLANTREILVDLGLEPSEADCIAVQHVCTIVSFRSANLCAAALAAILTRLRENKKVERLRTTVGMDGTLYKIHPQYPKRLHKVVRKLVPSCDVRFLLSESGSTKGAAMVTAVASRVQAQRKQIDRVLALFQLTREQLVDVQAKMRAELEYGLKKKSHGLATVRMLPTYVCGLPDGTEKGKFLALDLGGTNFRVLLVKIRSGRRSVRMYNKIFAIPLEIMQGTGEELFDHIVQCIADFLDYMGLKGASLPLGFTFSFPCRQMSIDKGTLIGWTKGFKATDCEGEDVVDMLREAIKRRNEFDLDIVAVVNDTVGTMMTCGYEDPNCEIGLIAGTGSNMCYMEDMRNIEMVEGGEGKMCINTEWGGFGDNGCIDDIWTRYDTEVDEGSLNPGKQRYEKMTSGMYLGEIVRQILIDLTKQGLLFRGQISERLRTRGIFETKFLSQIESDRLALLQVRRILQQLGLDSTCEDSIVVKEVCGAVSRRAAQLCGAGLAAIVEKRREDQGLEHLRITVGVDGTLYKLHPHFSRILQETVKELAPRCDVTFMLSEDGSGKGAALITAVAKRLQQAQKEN

[27] = tested on: HEK293; test: cytotoxicity in HEK293T NF-kB-Luc cells, SAR follow-up, cytotoxicity control for NF-kB activator project, cell-based, resazurin fluorescence (AID 493251); type: functional; settings: Homo sapiens
[28] = tested on: Jurkat; test: SAR Analysis of small molecule inhibitors of T-cell specific antigen receptor-induced NF-kB activation in a Jurkat cell line using a luminescence assay - Set 2. [Related pubchem assays (depositor defined):AID435003, AID435012, AID465]; type: functional, cell-based; settings: Homo sapiens
[29] = tested on: HEK293; test: SAR Analysis of small molecule inhibitors of T-cell specific antigen receptor-induced NF-kB activation in a HEK-293T cell line using a luminescence assay - Set 2. [Related pubchem assays (depositor defined):AID435003, AID435012, AID489026]; type: functional, cell-based; settings: Homo sapiens
[30] = tested on: A-375; test: MITF: Counter assay: A375 proliferation Measured in Cell-Based System Using Plate Reader - 2084-03_Inhibitor_Dose_DryPowder_Activity. [Related pubchem assays (depositor defined):AID488944]; type: functional; settings: Homo sapiens
[31] = tested on: A-375; test: A375 melanoma cell viability reduction, dose response, counter-screen for MITF modulator project, cherry-pick samples, set 2 (AID 540335); type: functional, cell-based; settings: Homo sapiens
[32] = tested on: Streptococcus; test: Group A Streptococcus viability loss, dose response, counter-screen for streptokinase expression inhibitor project, luminescence, BacTiterGlo (AID 1915); type: functional, organism-based;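 also: potency for reduction of bacterial viability or growth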
[33] = cells; type: functional
[34] = tested on: Escherichia coli; test: microbe, parasite or virus in culture
[35] = tested on: Escherichia coli; test: microbe, parasite or virus in culture; remark: listed apart in the source
[36] = tested on: Streptococcus sp. 'group A'; test: growth inhibition of control SK(-) GAS strain, dose response, counter-screen for streptokinase expression inhibitor project, luminescence, kanamycin, BacTiterGlo, confirmation (AID 1900); type: functional, organism-based
[37] = molecular target: T5, DNA repair and recombination protein RAD54-like (Homo sapiens, UniProt Q92698); test: inhibitors of human RAD54 branch migration, confirmation, biochemical, fluorescence, cherry-picked samples, dose series (AID 651657); type: functional
T5 sequence (Q92698 whole entry): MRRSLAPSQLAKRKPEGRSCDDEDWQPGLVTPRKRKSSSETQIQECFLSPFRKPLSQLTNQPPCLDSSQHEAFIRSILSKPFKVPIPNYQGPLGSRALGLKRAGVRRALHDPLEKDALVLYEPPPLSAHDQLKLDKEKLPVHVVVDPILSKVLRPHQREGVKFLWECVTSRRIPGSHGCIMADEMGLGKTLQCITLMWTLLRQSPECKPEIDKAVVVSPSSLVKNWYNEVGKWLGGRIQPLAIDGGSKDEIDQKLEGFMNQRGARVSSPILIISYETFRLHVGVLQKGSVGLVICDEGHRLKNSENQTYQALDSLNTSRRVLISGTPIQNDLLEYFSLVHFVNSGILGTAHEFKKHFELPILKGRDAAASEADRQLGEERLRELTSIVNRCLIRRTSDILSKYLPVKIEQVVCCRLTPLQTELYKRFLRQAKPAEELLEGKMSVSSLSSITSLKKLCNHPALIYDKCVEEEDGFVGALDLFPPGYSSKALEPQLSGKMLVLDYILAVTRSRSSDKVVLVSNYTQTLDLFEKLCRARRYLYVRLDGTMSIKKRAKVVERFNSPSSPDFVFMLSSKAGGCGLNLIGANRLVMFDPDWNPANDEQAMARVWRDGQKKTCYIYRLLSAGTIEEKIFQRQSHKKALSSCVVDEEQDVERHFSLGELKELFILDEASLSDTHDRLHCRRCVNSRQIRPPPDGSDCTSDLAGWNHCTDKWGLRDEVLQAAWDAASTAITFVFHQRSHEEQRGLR

Cc1ccc(-c2c(C#N)c(N)n(-c3ccc(Cl)cc3)c(=O)c2C#N)cc1
EC50 [1]: < 3 µM (active) | AC50 [2]: 20.4 µM (active) | EC50 [3]: 9.21 µM (active)

COc1cc(/C=C2\SC(=O)N(Cc3ccc(Cl)cc3)C2=O)cc([N+](=O)[O-])c1O
IC50 [4]: 36.7 µM (inactive) | IC50 [5]: > 158 µM (not active) | IC50 [6]: 4.68 µM (active) | IC50 [7]: 3.54 µM (active) | CC50 [8]: > 40 µM (active) | IC50 [9]: 67.5 µM (active) | IC50 [10]: 6.99 µM (active) | IC50 [11]: 4.6 µM (active) | IC50 [12]: 14.9 µM (active) | IC50 [13]: 26.9 µM (active) | IC50 [14]: > 50 µM (active) | IC50 [15]: > 66.6 µM (inactive)

c1nc2sc3c(c2c2nnnn12)CCCC3
AC50 [16]: 63.2 µM (active)

CSc1ccccc1OCc1cc(C(=O)NCCCc2ccccc2)no1
AC50 [17]: 17 µM (active)

O=C(c1ccccc1)c1c2c(cc3sc4ccccc4[n+]13)-c1cccc3cccc-2c13
AC50 [18]: 72.6 µM (active) | IC50 [19]: 15.1 µM (inactive) | EC50 [20]: > 32 µM (inactive) | IC50 [21]: 91.3 µM (inactive) | EC50 [22]: 0.06 µM (active) | AC50 [23]: 2.05 µM (active)

O=[N+]([O-])c1cccc(Cl)c1Cl
AC50 [24]: 50.1 µM (inconclusive)

O=C(NC1C(=O)N(CCN2CCOCC2)c2ccccc21)c1ccccc1 (configuration not stated)
IC50 [25]: > 80 µM (inactive) | IC50 [26]: > 80 µM (inactive)

O=C(Nc1ccc2c(c1)CCO2)c1ccc([N+](=O)[O-])o1
IC50 [27]: 59.5 µM (inactive) | IC50 [28]: 33.8 µM (inactive) | IC50 [29]: 45.6 µM (inactive)

CSC(=N)N/N=C/c1ccc2c(c1)OCO2
AC50 [30]: > 35 µM (active) | AC50 [31]: > 35 µM (active)

NC1CCN(c2c(F)cc3c(=O)c(C(=O)O)cn(C4CC4)c3c2Cl)C1 (configuration not stated) [CLINAFLOXACIN]
EC50 [32]: 0.142 µM (active) | IC50 [33]: 0.15 µM (active) | AC50 [34]: 4.49 µM (active) | AC50 [35]: 0.816 µM (active) | EC50 [36]: 0.115 µM (active) | AC50 [37]: 41.4 µM (active)
